Columns and labels:
Format in all cases: cell-based, human
DU145 cells [1] = test: MTT assay (cell growth / viability); details: 0-1.92 μg/ml, 5 days
Procedure: (§1) DU145 (1×10^3/well), PC-3 (1×10^3/well) and LNCaP-FGC (1.5×10^3/well) cells were seeded in 96-well plates 24 hours prior to serum starvation. Cells were starved of serum for 24 hours and then incubated in the serum-free medium with or without 12.5 μg/ml leptin for 5 days. 3-(4,5-dimethylthiazol-2-yl)-2,5-diphenyl tetrazolium bromide (MTT) was added to each well to a concentration of 0.5 mg/ml. After 3-hour incubation at 37° C., cells were lysed in 50% dimethylformamide and 20% SDS at 37° C. Optical densities (O.D.) at 550 nm and 670 nm were measured by a plate reader, and differential O.D. between 550 nm and 670 nm (O.D. 550 nm minus O.D. 670 nm) were determined. Each experiment was performed in quadruplicate, and the values are reported as mean±SD.
(§2) DU145 (0.5-1.0×10^3/well), PC-3 (0.5-1.0×10^3/well), and LNCaP FGC (0.75-1.5×10^3/well) cells were seeded in 96-well plates 24 hours prior to serum starvation. Cells were starved of serum for 24 hours and then incubated in the serum-free medium with or without cytokine(s), DHT and/or doxorubicin at indicated concentrations for 5 days. MTT was added to each well to a concentration of 0.5 mg/ml. After being incubated at 37° C. for 3 hours, cells were lysed in 50% dimethylformamide and 20% SDS at 37° C. Optical densities (OD) at 550 and 670 nm were measured by a plate reader, and differential OD between 550 and 670 nm (OD 550 minus OD 670 nm) were determined. Each experiment was performed in quadruplicate, and the values were reported as mean±S.D.
Sucrose gradients were set up in 2.2-ml centrifuge tubes (Beckman Coulter, Inc., Fullerton, Calif.) by layering 5, 10, 15 and 20% (w/v) sucrose in velocity sedimentation buffer (10 mM HEPES, pH 8; 125 mM NaCl). Gradients were then equilibrated overnight at 4° C. Twenty micrograms of f-adiponectin in 200 μl of velocity sedimentation buffer containing 5 μl of HMW-Native protein marker kit (GE Healthcare, Piscataway, N.J.) set to 0.5 μg/μl albumin was overlayed onto the sucrose gradients and spun in a Beckman TLS-55 rotor at 55,000 rpm for 5 hours at 4° C. Fractions (150 μl each) were sequentially collected from the top to the bottom; aliquots were removed and used immediately in the MTT assay. The remaining material was stored at −80° C. for Western blot analysis with anti-adiponectin antibody and SDS-PAGE with silver staining. For the MTT assay, DU145 cells (0.5×1 03/well) were serum-starved and incubated in triplicate in 60 μl of the serum-free medium plus 30 μl of each fraction. For Western blot analysis, 0.5 μl of each fraction was electrophoresed on a 10% SDS-polyacrylamide gel and electrotransferred to a polyvinylidene difluoride membrane. The membrane was washed, blocked, and hybridized with the anti-adiponectin antibody. Bands were visualized using a Lumiglo reagent (Cell Signaling Technology, Inc., Beverly, Mass.). For SDS-PAGE, 20 μl of each fraction was electrophoresed on a 10% SDS-polyacrylamide gel, followed by silver staining using the Silver Stain kit (Bio-Rad Laboratories, Inc., Hercules, Calif.) to visualize molecular weight markers.

LNCaP-FGC cells [2] = test: MTT assay (cell growth / viability); details: 0-1.92 μg/ml, 5 days
Procedure: as §1, §2

PC-3 cells [3] = test: MTT assay (cell growth / viability); details: 0-1.92 μg/ml, 5 days
Procedure: as §1, §2

DU145 cells [4] = test: [3H] thymidine incorporation assay; details: DU145, serum-deprived; leptin up to 12.5 μg/ml, IL-6 100 ng/ml or IGF-I 100 ng/ml; 20 hours
Procedure: (§3) DU145 (1.5×10^5/well), PC-3 (1.0×10^5/well) and LNCaP-FGC (2.0×10^5/well) cells were seeded into 24-well plates 24 hours before serum-starvation. Cells were deprived of serum for 48 hours, followed by incubation with leptin at indicated concentrations or 100 ng/ml IL-6 for 20 hours. In some experiments, cells were pretreated with SP600125 prior to cytokine stimulation as described below. Cells in each well were pulsed with 1 μCi of [^3H] thymidine (Amersham Pharmacia Biotech Inc., Piscataway, N.J., USA) during the final 5 hours, washed once with PBS, fixed with cold 5% trichloroacetic acid, solubilized with 0.25 M NaOH, and counted in scintillant. Each experiment was performed in quadruplicate, and the values are reported as mean±SD.
(§4) SP600125 was dissolved in DMSO to make a stock solution. Eighty-percent confluent prostate cancer cells were serum-starved for 24 hours and pretreated with SP600125 at indicated concentrations for 30 minutes, followed by leptin treatment (12.5 μg/ml): 15 minutes for Western blot analysis or 20 hours for thymidine incorporation assays. DMSO-treated cells were employed as controls.

PC-3 cells [5] = test: [3H] thymidine incorporation assay; details: PC-3, serum-deprived; leptin up to 12.5 μg/ml, IL-6 100 ng/ml or IGF-I 100 ng/ml; 20 hours
Procedure: as §3, §4

LNCaP-FGC cells [6] = test: [3H] thymidine incorporation assay; details: serum-deprived, leptin up to 12.5 μg/ml, IL-6 100 ng/ml or IGF-I 100 ng/ml, 20 hours
Procedure: as §3

Compound: COc1cccc2c1C(=O)c1c(O)c3c(c(O)c1C2=O)C[C@@](O)(C(=O)CO)C[C@@H]3O[C@H]1C[C@H](N)[C@H](O)[C@H](C)O1 [doxorubicin, reference compound]
- cell growth (MTT), doxorubicin alone (DU145 cells [1]): suppressed cell growth in a dose-dependent manner
- cell growth (MTT), doxorubicin alone (LNCaP-FGC cells [2]): suppressed cell growth in a dose-dependent manner
- cell growth (MTT), doxorubicin alone (PC-3 cells [3]): suppressed cell growth in a dose-dependent manner

Compound: IGF-I: Recombinant human IGF-I from R&D Systems; adipose cytokine
- [3H] thymidine incorporation (cell proliferation), cytokine alone (DU145 cells [4]): augmented cell proliferation
- [3H] thymidine incorporation (cell proliferation), cytokine alone (PC-3 cells [5]): augmented cell proliferation
- [3H] thymidine incorporation (cell proliferation), cytokine alone (LNCaP-FGC cells [6]): did not affect

Compound: IL-6: Recombinant human IL-6 purchased from R&D Systems; adipose cytokine
- [3H] thymidine incorporation (cell proliferation), cytokine alone (DU145 cells [4]): stimulated cell proliferation
- [3H] thymidine incorporation (cell proliferation), cytokine alone (PC-3 cells [5]): stimulated cell proliferation
- [3H] thymidine incorporation (cell proliferation), cytokine alone (LNCaP-FGC cells [6]): inhibited

Source: US20060040861A1, “Method of treating, preventing, and diagnosing prostate cancer” (priority 2004, published 2006)
